Test results published in ChEMBL document CHEMBL5244272 (Eur J Med Chem, 2021).
pIC50: −log10 of the molar value.

Columns and labels:
Plasmodium falciparum [1] = test: Antimalarial activity against chloroquine-resistant Plasmodium falciparum K1; type: functional, organism-based
Plasmodium falciparum [2] = test: Antimalarial activity against ART-resistant Plasmodium falciparum harboring R539T mutant assessed as increase in survival at 700 nM; type: functional
Plasmodium falciparum [3] = test: Potency index, ratio of artemisinin IC50 to test compound IC50 for Plasmodium falciparum D6; type: functional
Plasmodium falciparum [4] = test: Potency index, ratio of artemisinin IC50 to test compound IC50 for Plasmodium falciparum W2; type: functional
Plasmodium berghei [5] = test: Antimalarial activity against Plasmodium berghei infected in sc dosed mouse; type: functional
Plasmodium falciparum [6] = test: Antimalarial activity against chloroquine sensitive Plasmodium falciparum FCR-3; type: functional, organism-based
Plasmodium berghei [7] = test: Antimalarial activity against Plasmodium berghei infected in mouse; type: functional; details: Plasmodium berghei
Plasmodium falciparum [8] = test: Antimalarial activity against Plasmodium falciparum K1; type: functional, organism-based
Plasmodium falciparum [9] = test: Antimalarial activity against Plasmodium falciparum NF54; type: functional, organism-based
Plasmodium falciparum [10] = test: Antimalarial activity against Plasmodium falciparum Dd2; type: functional, organism-based
Plasmodium falciparum [11] = test: Antimalarial activity against chloroquine-sensitive Plasmodium falciparum NF54; type: functional, organism-based

## COC(=O)CC[C@@H](C)[C@H]1CC[C@H]2[C@@H]3CC[C@@H]4CC5(CC[C@]4(C)[C@H]3C[C@H](OC(C)=O)[C@]12C)OOC(c1ccccc1)(C(F)(F)F)O5 (stereo partly drawn)
Plasmodium falciparum [1]
  pIC50: < 6.64

## c1cc([C@H]2CC[C@]3(CC2)OOC2(O3)C3CC4CC(C3)CC2C4)ccc1OCCC1CCNCC1 (stereo partly drawn)
Plasmodium falciparum [2]
  Activity: <0.01%

## CC(=O)/C=C/N1C(=O)[C@H](C)[C@@H]2CC[C@@H](C)[C@@H]3CC[C@]4(C)OO[C@]32[C@H]1O4
Plasmodium falciparum [3]
  Ratio IC50: 2.54
Plasmodium falciparum [4]
  Ratio IC50: 1.25

## Cc1ccc([C@@H]2O[C@@H]3O[C@]4(C)CC[C@H]5[C@H](C)CC[C@@H]([C@H]2C)[C@@]35OO4)o1
Plasmodium berghei [5]; Plasmodium berghei
  ED50: 0.9 mg/kg

## N[C@H]1CC[C@@H](Oc2ccc([C@H]3CC[C@]4(CC3)OOC3(O4)C4CC5CC(C4)CC3C5)cc2)CC1 (stereo partly drawn)
Plasmodium falciparum [2]
  Activity: <0.01%

## C[C@@H]1CC[C@H]2[C@@H](C)C(=O)N(/C=C\C#N)[C@@H]3O[C@H]4CC[C@@H]1[C@@]23OO4
Plasmodium falciparum [3]
  Ratio IC50: 2.7
Plasmodium falciparum [4]
  Ratio IC50: 1.7

## COC(=O)CC[C@@H](C)[C@H]1CC[C@H]2[C@@H]3CC[C@@H]4CC5(CC[C@]4(C)[C@H]3C[C@H](OC(C)=O)[C@]12C)OOC(C)(C(F)(F)F)O5 (stereo partly drawn)
Plasmodium falciparum [1]
  pIC50: < 6.64

## COC(=O)/C=C/N1C(=O)[C@H](C)[C@@H]2CC[C@@H](C)[C@@H]3CC[C@]4(C)OO[C@]32[C@H]1O4
Plasmodium falciparum [3]
  Ratio IC50: 2
Plasmodium falciparum [4]
  Ratio IC50: 1.2

## C[C@H]1[C@H](n2cc(-c3cccc(Cl)c3)nn2)O[C@@H]2O[C@]3(C)CC[C@H]4[C@H](C)CC[C@@H]1[C@@]24OO3
Plasmodium falciparum [6]
  pIC50: 8.89

## CCCCCC[C@H]1C(=O)O[C@@H]2O[C@]3(C)CC[C@H]4[C@H](C)CC[C@@H]1[C@@]24OO3
Plasmodium berghei [5]
  IC100: 8 mg/kg/day

## FC1(F)C2CC3CC1CC(C2)C31OO[C@]2(CC[C@@H](c3ccc(OCCN4CCOCC4)cc3)CC2)O1 (stereo partly drawn)
Plasmodium falciparum [2]
  Activity: <0.01%

## C[C@H]1[C@H](n2cc(-c3ccccc3C(F)(F)F)nn2)O[C@@H]2O[C@]3(C)CC[C@H]4[C@H](C)CC[C@@H]1[C@@]24OO3
Plasmodium falciparum [6]
  pIC50: 8.34

## C[C@H]1[C@@H](Oc2ccc(C(F)(F)F)cc2)O[C@@H]2O[C@]3(C)CC[C@H]4[C@H](C)CC[C@@H]1[C@@]24OO3
Plasmodium berghei [7]
  ED50: 2.12 mg/kg

## CCC(O)C[C@H]1O[C@@H]2O[C@]3(C)CC[C@H]4[C@H](C)CC[C@@H]([C@H]1C)[C@@]24OO3 (stereo partly drawn)
Plasmodium falciparum [3]
  Ratio IC50: 5.8
Plasmodium falciparum [4]
  Ratio IC50: 4.8

## C[C@H]1[C@H](n2cc(-c3ccc(F)cc3)nn2)O[C@@H]2O[C@]3(C)CC[C@H]4[C@H](C)CC[C@@H]1[C@@]24OO3
Plasmodium falciparum [6]
  pIC50: 8.85

## CC(=O)CN1C(=O)[C@H](C)[C@@H]2CC[C@@H](C)[C@@H]3CC[C@]4(C)OO[C@]32[C@H]1O4
Plasmodium falciparum [3]
  Ratio IC50: 3.2
Plasmodium falciparum [4]
  Ratio IC50: 3

## CC1(OCc2ccccc2)CCC2CC1OO[C@]2(/C=C\c1ccc(F)cc1)c1ccccc1 (stereo partly drawn)
Plasmodium falciparum [1]
  pIC50: 7.54

## C[C@H]1[C@@H](CCOCc2ccccc2F)O[C@@H]2O[C@]3(C)CC[C@H]4[C@H](C)CC[C@@H]1[C@@]24OO3
Plasmodium berghei [7]
  ED50: 5.08 mg/kg

## CC1(OCc2ccccc2)CCC2CC1OO[C@]2(/C=C\c1ccc(Cl)cc1)c1ccccc1 (stereo partly drawn)
Plasmodium falciparum [1]
  pIC50: 7.64

## C[C@@H]1CC[C@H]2[C@@H](C)C(=O)N(CC(=O)c3ccccc3)[C@@H]3O[C@]4(C)CC[C@@H]1[C@@]23OO4
Plasmodium falciparum [3]
  Ratio IC50: 1.8
Plasmodium falciparum [4]
  Ratio IC50: 1.8

## C[C@H]1[C@@H](CC(O)C(C)(C)C)O[C@@H]2O[C@]3(C)CC[C@H]4[C@H](C)CC[C@@H]1[C@@]24OO3 (stereo partly drawn)
Plasmodium falciparum [3]
  Ratio IC50: 5.4
Plasmodium falciparum [4]
  Ratio IC50: 6.8

## C[C@H]1[C@H](N2CCN(C(=O)c3ccc(C(F)(F)F)cc3)CC2)O[C@@H]2O[C@]3(C)CC[C@H]4[C@H](C)CC[C@@H]1[C@@]24OO3
Plasmodium falciparum [8]
  pIC50: 8.46
Plasmodium falciparum [9]
  pIC50: 9.31
Plasmodium falciparum [10]
  pIC50: 7.88

## C[C@H]1[C@H](OC(=O)c2cccc([N+](=O)[O-])c2)O[C@@H]2O[C@]3(C)CC[C@H]4[C@H](C)CC[C@@H]1[C@@]24OO3
Plasmodium falciparum [11]
  pIC50: 7.98

## C[C@H]1[C@H](OC(=O)c2ccc([N+](=O)[O-])cc2)O[C@@H]2O[C@@]3(C)CC[C@H]4[C@H](C)CC[C@@H]1[C@@]24OO3
Plasmodium falciparum [11]
  pIC50: 8.07
